What was measured:
Type in all cases: biochemical
[1] = target: DPP4 (Homo sapiens, UniProt P27487); test: DPP4 inhibition, fluorogenic substrate H-Gly-Pro-AMC; parameters: purchased R&D Systems; conditions: for IC50: 25° C., H-Gly-Pro-AMC substrate; for inhibition at 1 µM: read-out: hDPP4 inhibition % at 1 μM
[2] = target: T1, recombinant human DPP9 (Homo sapiens, UniProt Q86TI2); test: DPP9 inhibition, fluorogenic substrate H-Gly-Pro-AMC; conditions: 25° C., H-Gly-Pro-AMC substrate
T1 construct: purchased R&D Systems
T1 sequence (Q86TI2 whole entry): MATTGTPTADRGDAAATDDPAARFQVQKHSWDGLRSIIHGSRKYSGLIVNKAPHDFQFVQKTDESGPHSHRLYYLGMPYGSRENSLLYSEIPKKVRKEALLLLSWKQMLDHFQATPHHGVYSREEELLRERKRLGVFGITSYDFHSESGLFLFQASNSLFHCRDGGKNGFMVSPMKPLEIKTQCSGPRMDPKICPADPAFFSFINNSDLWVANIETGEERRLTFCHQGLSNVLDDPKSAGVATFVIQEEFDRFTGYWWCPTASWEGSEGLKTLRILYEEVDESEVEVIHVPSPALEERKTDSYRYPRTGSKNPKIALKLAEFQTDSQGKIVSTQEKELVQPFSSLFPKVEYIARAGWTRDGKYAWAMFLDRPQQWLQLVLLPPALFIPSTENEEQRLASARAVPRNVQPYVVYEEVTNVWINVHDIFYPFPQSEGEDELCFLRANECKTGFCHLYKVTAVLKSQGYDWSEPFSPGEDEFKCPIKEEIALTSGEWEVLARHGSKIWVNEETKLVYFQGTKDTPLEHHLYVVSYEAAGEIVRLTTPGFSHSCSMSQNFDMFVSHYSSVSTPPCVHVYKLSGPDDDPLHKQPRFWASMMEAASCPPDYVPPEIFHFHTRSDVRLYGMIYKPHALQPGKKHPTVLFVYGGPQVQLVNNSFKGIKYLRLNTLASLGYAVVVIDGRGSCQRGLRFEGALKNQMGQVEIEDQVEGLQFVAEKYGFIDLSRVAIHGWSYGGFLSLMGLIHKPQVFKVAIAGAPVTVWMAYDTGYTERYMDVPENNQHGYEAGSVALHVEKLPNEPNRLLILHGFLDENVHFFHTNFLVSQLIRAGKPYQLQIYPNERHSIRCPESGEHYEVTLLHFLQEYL
Method in brief: (§1)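 Enzyme per reaction: 50 ng DPP9, 20 ng DPP8, 10 ng each DPP7 and PREP. Compounds were serially diluted (8 points, up to 0.5% DMSO) and incubated at 25 °C.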

[3] = target: T2, Recombinant human FAP (Homo sapiens, UniProt Q12884); test: FAP inhibition, fluorogenic substrate Z-Gly-Pro-AMC; conditions: 25° C., Z-Gly-Pro-AMC substrate
T2 construct: purchased R&D systems
T2 sequence (Q12884 1-760): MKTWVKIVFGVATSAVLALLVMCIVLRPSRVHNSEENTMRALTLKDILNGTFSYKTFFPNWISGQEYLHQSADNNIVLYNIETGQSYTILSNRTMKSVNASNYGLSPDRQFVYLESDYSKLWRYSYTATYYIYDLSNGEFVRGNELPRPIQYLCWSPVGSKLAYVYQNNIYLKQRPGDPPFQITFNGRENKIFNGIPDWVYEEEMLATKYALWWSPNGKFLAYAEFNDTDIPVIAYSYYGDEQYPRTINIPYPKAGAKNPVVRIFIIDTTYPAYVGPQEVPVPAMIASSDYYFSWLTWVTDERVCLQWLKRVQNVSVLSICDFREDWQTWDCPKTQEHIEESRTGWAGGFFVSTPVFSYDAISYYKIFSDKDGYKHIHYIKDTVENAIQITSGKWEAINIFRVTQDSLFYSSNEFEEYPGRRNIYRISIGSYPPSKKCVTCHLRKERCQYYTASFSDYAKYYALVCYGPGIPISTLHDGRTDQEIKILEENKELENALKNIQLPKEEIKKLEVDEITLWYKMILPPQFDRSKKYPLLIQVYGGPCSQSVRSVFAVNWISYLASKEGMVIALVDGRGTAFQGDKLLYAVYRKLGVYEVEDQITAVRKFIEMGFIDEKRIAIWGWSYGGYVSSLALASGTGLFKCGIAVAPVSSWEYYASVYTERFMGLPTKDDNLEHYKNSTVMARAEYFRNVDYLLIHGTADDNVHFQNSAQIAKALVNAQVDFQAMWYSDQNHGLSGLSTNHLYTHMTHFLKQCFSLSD
Method in brief: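 Recombinant human FAP, 10 ng per reaction, in 50 mM Tris pH 7.5 with 1 M NaCl and 1 mg/ml BSA at 25° C; substrate Z-Gly-Pro-AMC, ≤0.1% DMSO. AMC fluorescence read at ex 380/em 460 nm; % signal-rate decrease vs no-inhibitor control, 8-point curves fitted to a four-parameter logistic for IC50.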

[4] = target: T3, recombinant human DPP8 (Homo sapiens, UniProt Q6V1X1); test: DPP8 inhibition, fluorogenic substrate Z-Ala-Pro-AMC; conditions: 25° C., Z-Ala-Pro-AMC substrate
T3 construct: purchased PBS Bioscience
T3 sequence (Q6V1X1 whole entry): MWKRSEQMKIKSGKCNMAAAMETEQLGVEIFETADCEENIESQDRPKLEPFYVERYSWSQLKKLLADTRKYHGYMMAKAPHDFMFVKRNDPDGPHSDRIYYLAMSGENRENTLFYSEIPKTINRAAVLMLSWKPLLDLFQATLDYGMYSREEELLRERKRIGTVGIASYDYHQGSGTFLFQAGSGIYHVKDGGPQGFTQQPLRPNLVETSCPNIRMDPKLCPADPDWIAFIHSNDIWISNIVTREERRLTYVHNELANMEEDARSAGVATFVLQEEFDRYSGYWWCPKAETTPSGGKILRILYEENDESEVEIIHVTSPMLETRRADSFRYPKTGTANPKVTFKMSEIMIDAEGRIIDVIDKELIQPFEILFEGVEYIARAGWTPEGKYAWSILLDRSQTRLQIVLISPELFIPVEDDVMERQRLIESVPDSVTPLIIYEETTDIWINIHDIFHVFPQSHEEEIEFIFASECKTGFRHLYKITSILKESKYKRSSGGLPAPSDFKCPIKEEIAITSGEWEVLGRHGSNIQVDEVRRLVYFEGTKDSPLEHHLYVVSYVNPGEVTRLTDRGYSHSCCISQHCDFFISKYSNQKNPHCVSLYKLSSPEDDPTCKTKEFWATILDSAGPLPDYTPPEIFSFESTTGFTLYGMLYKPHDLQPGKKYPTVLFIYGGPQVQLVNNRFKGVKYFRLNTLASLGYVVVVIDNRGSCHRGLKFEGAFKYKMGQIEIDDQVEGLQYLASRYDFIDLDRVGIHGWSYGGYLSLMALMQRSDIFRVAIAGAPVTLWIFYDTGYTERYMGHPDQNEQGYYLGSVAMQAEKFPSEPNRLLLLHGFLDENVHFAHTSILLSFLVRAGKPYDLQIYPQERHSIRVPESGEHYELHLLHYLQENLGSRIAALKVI
Method in brief: as §1

[5] = target: T4, recombinant human DPP7 (Homo sapiens, UniProt Q9UHL4); test: DPP7 inhibition, fluorogenic substrate Lys-Pro-AMC
T4 construct: purchased R&D Systems
Method in brief: as §1

[6] = target: T5, recombinant human PREP (Homo sapiens, UniProt P48147); test: PREP inhibition, fluorogenic substrate Z-Gly-Pro-AMC; conditions: Inhibitory Activity (IC50, nM) PREP, 25° C., Z-Gly-Pro-AMC substrate
T5 construct: purchased R&D System
T5 sequence (P48147 1-710): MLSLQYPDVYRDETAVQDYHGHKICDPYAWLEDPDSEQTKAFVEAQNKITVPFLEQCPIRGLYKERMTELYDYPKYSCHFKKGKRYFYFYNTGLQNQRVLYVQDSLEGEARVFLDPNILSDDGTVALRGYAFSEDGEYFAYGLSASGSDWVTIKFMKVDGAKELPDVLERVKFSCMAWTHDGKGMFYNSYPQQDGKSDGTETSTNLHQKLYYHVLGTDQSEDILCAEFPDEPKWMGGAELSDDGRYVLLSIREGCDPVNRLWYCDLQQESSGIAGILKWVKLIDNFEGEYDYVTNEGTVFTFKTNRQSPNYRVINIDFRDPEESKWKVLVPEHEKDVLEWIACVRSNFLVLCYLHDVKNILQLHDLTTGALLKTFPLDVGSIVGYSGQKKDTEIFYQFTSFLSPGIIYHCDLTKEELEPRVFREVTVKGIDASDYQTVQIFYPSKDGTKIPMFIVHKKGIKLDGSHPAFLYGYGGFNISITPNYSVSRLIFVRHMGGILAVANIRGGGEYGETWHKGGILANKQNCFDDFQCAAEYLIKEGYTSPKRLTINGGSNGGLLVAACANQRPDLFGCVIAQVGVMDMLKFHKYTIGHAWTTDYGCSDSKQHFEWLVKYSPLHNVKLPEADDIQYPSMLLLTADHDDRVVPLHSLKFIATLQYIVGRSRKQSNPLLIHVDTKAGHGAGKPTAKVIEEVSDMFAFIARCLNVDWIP
Method in brief: as §1

Sequence of DPP4 (P27487 whole entry): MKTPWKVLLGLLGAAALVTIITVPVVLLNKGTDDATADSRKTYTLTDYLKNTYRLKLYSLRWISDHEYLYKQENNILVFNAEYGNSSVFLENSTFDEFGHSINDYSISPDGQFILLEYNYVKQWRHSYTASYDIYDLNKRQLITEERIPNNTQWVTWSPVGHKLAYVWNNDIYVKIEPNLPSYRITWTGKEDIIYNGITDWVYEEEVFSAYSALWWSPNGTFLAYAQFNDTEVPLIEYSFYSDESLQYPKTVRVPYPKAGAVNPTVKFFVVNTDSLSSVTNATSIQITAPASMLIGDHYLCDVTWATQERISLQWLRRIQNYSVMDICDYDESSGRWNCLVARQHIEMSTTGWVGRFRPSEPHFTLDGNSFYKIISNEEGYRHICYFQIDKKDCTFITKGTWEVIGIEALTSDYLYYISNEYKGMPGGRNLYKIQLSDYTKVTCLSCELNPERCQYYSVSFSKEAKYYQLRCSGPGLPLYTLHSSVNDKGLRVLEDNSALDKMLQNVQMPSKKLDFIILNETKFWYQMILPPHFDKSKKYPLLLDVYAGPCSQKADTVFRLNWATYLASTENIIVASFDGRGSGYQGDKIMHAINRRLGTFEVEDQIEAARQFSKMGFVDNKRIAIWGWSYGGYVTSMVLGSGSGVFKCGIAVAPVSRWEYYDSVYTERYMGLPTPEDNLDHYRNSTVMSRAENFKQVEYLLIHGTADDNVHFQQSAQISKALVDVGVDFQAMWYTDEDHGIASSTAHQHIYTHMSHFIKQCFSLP

Row | IC50 [1] | IC50 [2] | IC50 [3] | IC50 [4] | IC50 [5] | IC50 [6] | inhibition at 1 µM [1] | SMILES
1 | > 1 µM | > 100 µM | 0.00624 µM | > 10 µM | 1.61 µM | 6960 nM |  | N#C[C@@H]1CCCN1C(=O)CN1CC[C@@H](Nc2cnc3ccccc3c2)C1 [Example 17, (S)-1-(2-((R)-3-(quinolin-3-ylamino)pyrrolidin-1-yl)acetyl)pyrrolidine-2-carbonitrile]
2 | > 1 µM | 44 µM | 0.00574 µM | 45.2 µM | 0.206 µM | 11800 nM |  | N#C[C@@H]1CCCN1C(=O)CN1CC[C@H](Nc2cncc3ccccc23)C1 [Example 19, (S)-1-(2-((S)-3-(isoquinolin-4-ylamino)pyrrolidin-1-yl)acetyl)pyrrolidine-2-carbonitrile]
3 | > 1 µM | 69.1 µM | 0.00453 µM | 23.1 µM | 2.12 µM | 7230 nM |  | N#C[C@@H]1CCCN1C(=O)CN1CC[C@H](Nc2cccc3sccc23)C1 [Example 20, (S)-1-(2-((S)-3-(benzo[b]thiophen-4-ylamino)pyrrolidin-1-yl)acetyl)pyrrolidine-2-carbonitrile]
4 | > 1 µM | 68 µM | 0.00212 µM | 77.3 µM | 0.524 µM | 5460 nM |  | N#C[C@@H]1CCCN1C(=O)CN1CC[C@@H](Nc2cncc3ccccc23)C1 [Example 24, (S)-1-(2-((R)-3-(isoquinolin-4-ylamino)pyrrolidin-1-yl)acetyl)pyrrolidine-2-carbonitrile]
5 |  | 27.4 µM | 0.00162 µM | 20.7 µM | 1.22 µM | 12100 nM | 5.4% | N#C[C@@H]1CCCN1C(=O)CN1CC[C@H](Nc2cccc3ncccc23)C1 [Example 27, (S)-1-(2-((S)-3-(quinolin-5-ylamino)pyrrolidin-1-yl)acetyl)pyrrolidine-2-carbonitrile]
6 | 2.63 µM | 8.24 µM | 0.00182 µM | 18.6 µM | 0.346 µM | 6600 nM |  | N#C[C@@H]1C[C@H](F)CN1C(=O)CN1CC[C@H](Nc2cncc3ccoc23)C1 [Example 28, (2S,4S)-4-fluoro-1-(2-((S)-3-(furo[3,2-c]pyridin-7-ylamino)pyrrolidin-1-yl)acetyl)pyrrolidin-2-carbonitrile]
7 | > 100 µM | 17.5 µM | 0.00622 µM | 28.7 µM | 0.728 µM | 6170 nM |  | N#C[C@@H]1C[C@H](F)CN1C(=O)CN1CC[C@H](NC(=O)c2coc3cc(F)ccc23)C1 [Example 29, N—((S)-1-(2-((2S,4S)-2-cyano-4-fluoropyrrolidin-1-yl)-2-oxoethyl)pyrrolidin-3-yl)-6-fluorobenzofuran-3-carboxamide]
8 | > 1 µM | > 100 µM | 0.0327 µM | 21.8 µM | 3.55 µM | 6450 nM |  | N#C[C@@H]1CCCN1C(=O)CN1CC[C@H](NC(=O)c2cc3ccccc3s2)C1 [Example 36, N—((S)-1-(2-((S)-2-cyanopyrrolidin-1-yl)-2-oxoethyl)pyrrolidin-3-yl)benzo[b]thiophene-2-carboxamide]
9 | > 1 µM | > 100 µM | 0.0118 µM | 72.8 µM | 5.17 µM | 8260 nM |  | N#C[C@@H]1CCCN1C(=O)CN1CC[C@H](NC(=O)c2coc3ccccc23)C1 [Example 37, N—((S)-1-(2-((S)-2-cyanopyrrolidin-1-yl)-2-oxoethyl)pyrrolidin-3-yl)benzofuran-3-carboxamide]
10 | > 1 µM | > 100 µM | 0.0037 µM | 62.1 µM | 4.13 µM | 3190 nM |  | N#C[C@@H]1CCCN1C(=O)CN1CC[C@H](NC(=O)c2csc3ccccc23)C1 [Example 41, N—((S)-1-(2-((S)-2-cyanopyrrolidin-1-yl)-2-oxoethyl)pyrrolidin-3-yl)benzo[b]thiophene-3-carboxamide]
11 |  | > 100 µM | 0.00994 µM | 44.7 µM | 3.37 µM | 8350 nM | 0.2% | N#C[C@@H]1CCCN1C(=O)CN1CC[C@H](NC(=O)c2coc3ccc(F)cc23)C1 [Example 43, N—((S)-1-(2-((S)-2-cyanopyrrolidin-1-yl)-2-oxoethyl)pyrrolidin-3-yl)-5-fluorobenzofuran-3-carboxamide]
12 |  | > 100 µM | 0.00507 µM | 46.2 µM | 1.72 µM | 12100 nM | 1.4% | N#C[C@@H]1CCCN1C(=O)CN1CC[C@H](NC(=O)c2coc3cc(F)ccc23)C1 [Example 44, N—((S)-1-(2-((S)-2-cyanopyrrolidin-1-yl)-2-oxoethyl)pyrrolidin-3-yl)-6-fluorobenzofuran-3-carboxamide]
13 |  | > 100 µM | 0.00223 µM | 12 µM | 0.762 µM | 6750 nM | 3.6% | N#C[C@@H]1CCCN1C(=O)CN1CC[C@H](NC(=O)c2coc3cccc(O)c23)C1 [Example 48, N—((S)-1-(2-((S)-2-cyanopyrrolidin-1-yl)-2-oxoethyl)pyrrolidin-3-yl)-4-hydroxybenzofuran-3-carboxamide]
14 |  | 92.6 µM | 0.00442 µM | 12.3 µM | 4.37 µM | 8360 nM | 0.6% | N#C[C@@H]1CCCN1C(=O)CN1CC[C@H](NC(=O)c2coc3cc(O)ccc23)C1 [Example 49, N—((S)-1-(2-((S)-2-cyanopyrrolidin-1-yl)-2-oxoethyl)pyrrolidin-3-yl)-6-hydroxybenzofuran-3-carboxamide]
15 |  | > 100 µM | 0.0109 µM | 38.9 µM | 3.32 µM | 13400 nM | 0.6% | N#C[C@@H]1CCCN1C(=O)CN1CC[C@H](NC(=O)c2coc3c(F)cc(F)cc23)C1 [Example 51, N—((S)-1-(2-((S)-2-cyanopyrrolidin-1-yl)-2-oxoethyl)pyrrolidin-3-yl)-5,7-difluorobenzofuran-3-carboxamide]
16 |  | > 100 µM | 0.00848 µM | 23.2 µM | 2.39 µM | 5500 nM | 2% | COc1ccc2c(C(=O)N[C@H]3CCN(CC(=O)N4CCC[C@H]4C#N)C3)coc2c1 [Example 54, N—((S)-1-(2-((S)-2-cyanopyrrolidin-1-yl)-2-oxoethyl)pyrrolidin-3-yl)-6-methoxybenzofuran-3-carboxamide]
17 |  | 26.5 µM | 0.0251 µM | 6 µM | 0.499 µM | 10200 nM | 0.6% | N#C[C@@H]1CCCN1C(=O)CN1CC[C@H](NC(=O)c2ccc3ccoc3c2)C1 [Example 57, N—((S)-1-(2-((S)-2-cyanopyrrolidin-1-yl)-2-oxoethyl)pyrrolidin-3-yl)benzofuran-6-carboxamide]
